# Reference: patent US5298616A, “Sulfated O-polysaccharide-trehaloses” (Hoffmann-La Roche Inc., priority 1990, dated 1994)
# Experiments:
# citrated human plasma = assay: aPTT (activated partial thromboplastin time) Test; format: biochemical; conditions: concentration which doubles the coagulation time vs control
# Method: (§1) The blood coagulation-inhibiting activity was determined as follows:
# aPTT (activated partial thromboplastin time) Test (see Walenga et al., CRC Critical Reviews in Laboratory Sciences 22 (4) 361-389 (1986)): 100 μl of citrated human plasma, which contains various concentrations of test compound, is incubated at 37° C. for 8 minutes with 100 μl of Activated Thrombofax (Ortho Diagnostics, Raritan, N.J., U.S.A.). 100 μl of prewarmed 25 mM calcium chloride solution are then added and the coagulation time is measured in a Fibrometer Coagulation Timer (Becton Dickinson, Basle).
# (§2) The activity of the test compound is given as the IC50, which is that concentration [μg/ml] which leads to a coagulation time which is double the control value.
# Factor Xa [1] = biological target: T1, Factor Xa (Bos taurus, UniProt P00743); assay: Inhibition of Factor Xa in the Chromogenic Substrate Assay; format: biochemical; conditions: amidolytic activity reduced by 50% vs plasma control; S-2222
# T1 sequence (P00743 234-492 limits assumed): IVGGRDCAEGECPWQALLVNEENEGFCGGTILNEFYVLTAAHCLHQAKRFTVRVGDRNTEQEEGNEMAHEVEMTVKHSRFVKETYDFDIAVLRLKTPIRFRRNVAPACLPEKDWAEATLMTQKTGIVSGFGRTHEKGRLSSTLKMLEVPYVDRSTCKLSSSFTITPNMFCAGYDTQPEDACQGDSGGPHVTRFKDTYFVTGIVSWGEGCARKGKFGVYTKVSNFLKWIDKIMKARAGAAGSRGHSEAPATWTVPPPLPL
# Method: as §1
# Inhibition of Thrombin or Factor Xa in the Chromogenic Substrate Assay (Teien et al., Thrombosis Research 10, 399-410 (1977)): The test was performed in a Cobas-Bio centrifugal automatic spectrophotometer. The buffer solution used consisted of 50 mM Tris buffer, 180 mM NaCl, 7.5 mM EDTA Na2, 1% PEG 6000 and 0.02% Tween 80, pH 8.4. The sample consisted of 50 μl of buffer, 30 μl of anti-thrombin Ill (1 U/ml), Kabi Diagnostics) and 20 μl of plasma which contained various concentrations of test compounds. 30 μl of sample solution and 20 μl of water with 180 μl of thrombin were added to the test cuvette in the automatic analyzer. After incubation at 37° C. for 240 seconds 60 μl of S-2238 (H-D-Phe-Pip-Arg-NH.pNA, Kabi Diagnostics, Mondal, Sweden, 0.75 mM in water) and 20 μl of water were added. The liberation of pNA (p-nitroaniline) was followed during 60 seconds at 405 nm in 10 second intervals in comparison to water as the blank. The inhibitory activity is given as the IC50, which is the concentration [μg/ml] at which the amidolytic activity of thrombin is reduced by 50% in comparison to the plasma control value.
# The inhibition of Factor Xa was measured in the same manner using a solution of Factor Xa (2.8 nkat/ml and 2 mM S-2222 (Bz-CO-Ile-Glu-Arg-NH.pNA, Kabi Diagnostics) in water in place of thrombin and, respectively, S-2238.
# Factor Xa [2] = biological target: T1, Factor Xa; assay: anti-Xa Clotting Assay; format: biochemical; conditions: concentration which doubles the coagulation time vs control; citrated plasma
# Method: as §1
# anti-Xa Clotting Assay: 25 μl of citrated plasma having various concentrations of test compound are mixed with 75 μl of Factor Xa (Diagnostic Reagents, Thame, Oxon, Great Britain) diluted 1:100 in 0.63% citrate buffer (pH 7.3) which contains 41 mM imidazole, 82 mM NaCl and 0.1% albumin. After warming to 37° C. for 2 minutes 200 μl of a 1:1 mixture of Factor X Deficient Plasma (Diagnostic Reagents) and Platelet Substitute (Diagnostic Reagents) are added and the mixture is incubated at 37° C. for 20 seconds. After the addition of 100 μl of prewarmed 50 mM calcium chloride solution the coagulation time is measured in a Fibrometer.
# as §2
# thrombin = thrombin (Homo sapiens, UniProt P00734); assay: Inhibition of Thrombin in the Chromogenic Substrate Assay; format: biochemical; conditions: amidolytic activity reduced by 50% vs plasma control; anti-thrombin III, S-2238
# Method: as §1
# The buffer solution used consisted of 50 mM Tris buffer, 180 mM NaCl, 7.5 mM EDTA Na2, 1% PEG 6000 and 0.02% Tween 80, pH 8.4. The sample consisted of 50 μl of buffer, 30 μl of anti-thrombin Ill (1 U/ml), Kabi Diagnostics) and 20 μl of plasma which contained various concentrations of test compounds. 30 μl of sample solution and 20 μl of water with 180 μl of thrombin were added to the test cuvette in the automatic analyzer. […] The liberation of pNA (p-nitroaniline) was followed during 60 seconds at 405 nm in 10 second intervals in comparison to water as the blank.
# rat smooth muscle cells = assay: anti-proliferative activity in cell cultures; format: cell-based; conditions: for Anti-proliferative activity % inhibition: 100 μg/ml test substance, 7 days, vs non-inhibited growth
# Method: The anti-proliferative activity of the substances was determined in cell cultures as follows: rat smooth muscle cells (cultivated in DMEM with 10% FCS at 37° C. and 5% CO2) were seeded in 24 well cell culture plates with a density of 8×10^3 cells/well. After 4 hours the number of adhered cells was determined and the substances to be tested ([…]) were added. Cells to which no substance was added served as a comparison and heparin (100 μg/ml) served as a positive control. The cells were incubated for 7 days and then the cell number was determined. The antiproliferative activity of the individual substances was calculated as the % inhibition in comparison to non-inhibited growth: [formula] wherein cell number(d=O) cell number after 4 h cell number(-)=cell number to which no test
# substances was added, after 7 days.
# cell number(inhib)=cell number with
# 100 μg/ml of the test substance.
"Anti-coagulation activity IC50, Coagulation inhibition aPTT (citrated human plasma)","Anti-coagulation activity IC50, Amidolytic activity F.Xa (Factor Xa [1])","Anti-coagulation activity IC50, Coagulation inhibition Xa (Factor Xa [2])","Anti-coagulation activity IC50, Amidolytic activity Thrombin (thrombin)",Substance,Anti-proliferative activity % inhibition (rat smooth muscle cells),anti-proliferative activity (rat smooth muscle cells; result in words)
13.5 µg/mL,> 1000 µg/mL,34 µg/mL,> 1000 µg/mL,"sulphated 4,4'-bis -O-(β-D-glucopyranosyl)-α,α-D-trehalose [Example 7C]",49%,–
33 µg/mL,> 1000 µg/mL,69 µg/mL,> 1000 µg/mL,"sulphated 4-O-(β-D-cellobiosyl)-α,α-D-trehalose [Example 5C]",39%,–
1.2 µg/mL,2.7 µg/mL,0.6 µg/mL,1.9 µg/mL,Heparin [reference compound],–,anti-proliferatively active
11 µg/mL,> 1000 µg/mL,32 µg/mL,> 1000 µg/mL,"sulphated 4-O -(β-D-maltotriosyl)-α,α-D-trehalose [Example 4C]",64%,–
40 µg/mL,> 1000 µg/mL,115 µg/mL,> 1000 µg/mL,"sulphated 4-O-(β-D-glucopyranosyl) -α,α-D-trehalose [Example 2C]",38%,–
14.5 µg/mL,900 µg/mL,28.5 µg/mL,> 1000 µg/mL,"sulphated 4,4'-bis-O-(β-D-maltosyi)-α,α-D-trehalose [Example 6D]",67%,–
12 µg/mL,> 1000 µg/mL,33.5 µg/mL,> 1000 µg/mL,"sulphated 4-O-(β-D-maltosyl)-α,α-D-trehalose [Example 3C]",59%,–

Substance,"Anti-coagulation activity IC50, Coagulation inhibition aPTT (citrated human plasma)","Anti-coagulation activity IC50, Amidolytic activity F.Xa (Factor Xa [1])","Anti-coagulation activity IC50, Coagulation inhibition Xa (Factor Xa [2])","Anti-coagulation activity IC50, Amidolytic activity Thrombin (thrombin)",Anti-proliferative activity % inhibition (rat smooth muscle cells),anti-proliferative activity (rat smooth muscle cells; result in words)
"sulphated 4-O-(α-D-maltotriosyl)-α,α-D-trehalose [Example 1G]",11 µg/mL,960 µg/mL,31 µg/mL,> 1000 µg/mL,57%,–
